# According to ChEMBL document CHEMBL1201861, “Genomics of Drug Sensitity in Cancer screening data, Wellcome Trust Sanger Institute”:
# Columns and labels:
# Assay in all cases: cells
# [1] = system: TGBC24TKB; format: functional, cell-based, Homo sapiens; settings: Homo sapiens, TGBC24TKB;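 further: growth inhibition of human TGBC24TKB cells, read out with a cell viability assay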
# Description: SANGER: Inhibition of human TGBC24TKB cell growth in a cell viability assay.
# [2] = system: KNS-42; format: functional, cell-based, Homo sapiens; settings: Homo sapiens, KNS-42;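 further: growth inhibition of KNS-42 cells, read out with a cell viability assay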
# Description: SANGER: Inhibition of human KNS-42 cell growth in a cell viability assay.
# [3] = system: OVCAR-4; format: functional, cell-based, Homo sapiens; settings: Homo sapiens, OVCAR-4;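 further: growth inhibition of human OVCAR-4 cells, measured with a cell viability assay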
# Description: SANGER: Inhibition of human OVCAR-4 cell growth in a cell viability assay.
# [4] = system: LB2518-MEL; format: functional, cell-based, Homo sapiens; settings: Homo sapiens, LB2518-MEL;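 further: growth inhibition of human LB2518-MEL cells, measured with a cell viability assay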
# Description: SANGER: Inhibition of human LB2518-MEL cell growth in a cell viability assay.
# [5] = system: LB831-BLC; format: functional, cell-based, Homo sapiens; settings: Homo sapiens, LB831-BLC;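 further: growth inhibition of LB831-BLC cells, read out with a cell viability assay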
# Description: SANGER: Inhibition of human LB831-BLC cell growth in a cell viability assay.
# [6] = system: GI-1; format: functional, cell-based, Homo sapiens; settings: Homo sapiens, GI-1;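 further: growth inhibition of human GI-1 cells, measured with a cell viability readout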
# Description: SANGER: Inhibition of human GI-1 cell growth in a cell viability assay.
# [7] = system: KALS-1; format: functional, cell-based, Homo sapiens; settings: Homo sapiens, KALS-1;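 further: growth inhibition of KALS-1 cells, determined with a cell viability assay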
# Description: SANGER: Inhibition of human KALS-1 cell growth in a cell viability assay.
# [8] = system: Ramos-2G6-4C10; format: functional, cell-based, Homo sapiens; settings: Homo sapiens, Ramos-2G6-4C10;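 further: growth inhibition of the cell line, measured by a cell viability read-out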
# Description: SANGER: Inhibition of human Ramos-2G6-4C10 cell growth in a cell viability assay.
# [9] = system: COR-L88; format: functional, cell-based, Homo sapiens; settings: Homo sapiens, COR-L88;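 further: growth inhibition of COR-L88 cells, read out with a cell viability assay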
# Description: SANGER: Inhibition of human COR-L88 cell growth in a cell viability assay.
# [10] = system: AM-38; format: functional, cell-based, Homo sapiens; settings: Homo sapiens, AM-38;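 further: growth inhibition of AM-38 cells of human origin, read out by a cell viability assay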
# Description: SANGER: Inhibition of human AM-38 cell growth in a cell viability assay.
# [11] = system: K5; format: functional, cell-based, Homo sapiens; settings: Homo sapiens, K5
# Description: SANGER: Inhibition of human K5 cell growth in a cell viability assay.
# [12] = system: OMC-1; format: functional, cell-based, Homo sapiens; settings: Homo sapiens, OMC-1;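 further: growth inhibition of the OMC-1 cell line, measured by a cell viability assay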
# Description: SANGER: Inhibition of human OMC-1 cell growth in a cell viability assay.
# [13] = system: BB30-HNC; format: functional, cell-based, Homo sapiens; settings: Homo sapiens, BB30-HNC;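 further: growth inhibition of the cultured cell line, read out by a cell viability assay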
# Description: SANGER: Inhibition of human BB30-HNC cell growth in a cell viability assay.
# [14] = system: SNU-5; format: functional, cell-based, Homo sapiens; settings: Homo sapiens, SNU-5;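 further: cell viability readout used to measure growth inhibition in human NCI-SNU-5 cells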
# Description: SANGER: Inhibition of human NCI-SNU-5 cell growth in a cell viability assay.
# [15] = system: LU-139; format: functional, cell-based, Homo sapiens; settings: Homo sapiens, LU-139
# Description: SANGER: Inhibition of human LU-139 cell growth in a cell viability assay.
# [16] = system: SJSA-1; format: functional, cell-based, Homo sapiens; settings: Homo sapiens, SJSA-1;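 further: growth inhibition of human SJSA-1 cells, read out through a cell viability measurement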
# Description: SANGER: Inhibition of human SJSA-1 cell growth in a cell viability assay.
# [17] = system: RS4-11; format: functional, cell-based, Homo sapiens; settings: Homo sapiens, RS4-11;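 further: growth inhibition of RS4-11 cells, read out by a cell viability assay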
# Description: SANGER: Inhibition of human RS4-11 cell growth in a cell viability assay.
# [18] = system: COLO-824; format: functional, cell-based, Homo sapiens; settings: Homo sapiens, COLO-824
# Description: SANGER: Inhibition of human COLO-824 cell growth in a cell viability assay.
# [19] = system: NCI-H1650; format: functional, cell-based, Homo sapiens; settings: Homo sapiens, NCI-H1650;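 further: growth inhibition of human NCI-H1650 cells measured by a cell viability assay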
# Description: SANGER: Inhibition of human NCI-H1650 cell growth in a cell viability assay.
# [20] = system: MSTO-211H; format: functional, cell-based, Homo sapiens; settings: Homo sapiens, MSTO-211H
# Description: SANGER: Inhibition of human MSTO-211H cell growth in a cell viability assay.
# [21] = system: DMS-114; format: functional, cell-based, Homo sapiens; settings: Homo sapiens, DMS-114
# [22] = system: MOLT-16; format: functional, cell-based, Homo sapiens; settings: Homo sapiens, MOLT-16;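 further: growth inhibition of human MOLT-16 cells, read out with a cell viability assay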
# Description: SANGER: Inhibition of human MOLT-16 cell growth in a cell viability assay.
# [23] = system: MHH-NB-11; format: functional, cell-based, Homo sapiens; settings: Homo sapiens, MHH-NB-11;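 further: growth inhibition of human MHH-NB-11 cells, read out by a cell viability assay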
# Description: SANGER: Inhibition of human MHH-NB-11 cell growth in a cell viability assay.
# [24] = system: SCH; format: functional, cell-based, Homo sapiens; settings: Homo sapiens, SCH;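 further: growth inhibition of human SCH cells, read out in a cell viability assay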
# Description: SANGER: Inhibition of human SCH cell growth in a cell viability assay.
# [25] = system: NCI-H1648; format: functional, cell-based, Homo sapiens; settings: Homo sapiens, NCI-H1648;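 further: cell viability assay measuring inhibition of NCI-H1648 cell growth, from the Sanger screening data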
# Description: SANGER: Inhibition of human NCI-H1648 cell growth in a cell viability assay.
# [26] = system: KE-37; format: functional, cell-based, Homo sapiens; settings: Homo sapiens, KE-37;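 further: growth inhibition of KE-37 cells, read out with a cell viability assay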
# Description: SANGER: Inhibition of human KE-37 cell growth in a cell viability assay.
# [27] = system: NCI-H82; format: functional, cell-based, Homo sapiens; settings: Homo sapiens, NCI-H82;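 further: growth inhibition of NCI-H82 cells, measured with a cell viability readout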
# Description: SANGER: Inhibition of human NCI-H82 cell growth in a cell viability assay.
# [28] = system: HC-1; format: functional, cell-based, Homo sapiens; settings: Homo sapiens, HC-1;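 further: growth inhibition of HC-1 cells measured by a cell viability assay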
# Description: SANGER: Inhibition of human HC-1 cell growth in a cell viability assay.
# [29] = system: LB771-HNC; format: functional, cell-based, Homo sapiens; settings: Homo sapiens, LB771-HNC;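 further: growth inhibition of LB771-HNC human cells, read out with a cell viability assay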
# Description: SANGER: Inhibition of human LB771-HNC cell growth in a cell viability assay.
# [30] = system: LS-1034; format: functional, cell-based, Homo sapiens; settings: Homo sapiens, LS-1034
# Description: SANGER: Inhibition of human LS-1034 cell growth in a cell viability assay.
# [31] = system: LOX IMVI; format: functional, cell-based, Homo sapiens; settings: Homo sapiens, LOX IMVI
# Description: SANGER: Inhibition of human LOXIMVI cell growth in a cell viability assay.
# [32] = system: NB10; format: functional, cell-based, Homo sapiens; settings: Homo sapiens, NB10;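 further: growth inhibition of NB10 cells, read out by a cell viability assay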
# Description: SANGER: Inhibition of human NB10 cell growth in a cell viability assay.
# [33] = system: NEC8; format: functional, cell-based, Homo sapiens; settings: Homo sapiens, NEC8;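 further: growth inhibition of human NEC8 cells, read out by a cell viability assay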
# Description: SANGER: Inhibition of human NEC8 cell growth in a cell viability assay.
# [34] = system: HuTu80; format: functional, cell-based, Homo sapiens, HUTU-80; settings: Homo sapiens, HuTu80;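 further: growth inhibition of HuTu80 human cells, determined with a cell viability readout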
# Description: SANGER: Inhibition of human HUTU-80 cell growth in a cell viability assay.
# [35] = system: Lu-65; format: functional, cell-based, Homo sapiens; settings: Homo sapiens, Lu-65;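 further: growth inhibition of Lu-65 cancer cells, read out by a cell viability assay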
# Description: SANGER: Inhibition of human LU-65 cell growth in a cell viability assay.
# [36] = system: DJM-1; format: functional, cell-based, Homo sapiens; settings: Homo sapiens, DJM-1;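 further: growth inhibition of human DJM-1 cells, read out by a cell viability assay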
# Description: SANGER: Inhibition of human DJM-1 cell growth in a cell viability assay.
# [37] = system: TGW; format: functional, cell-based, Homo sapiens; settings: Homo sapiens, TGW;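 further: growth inhibition of human TGW cells, read out with a cell viability assay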
# Description: SANGER: Inhibition of human TGW cell growth in a cell viability assay.
# [38] = system: ATN-1; format: functional, cell-based, Homo sapiens; settings: Homo sapiens, ATN-1;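 further: growth inhibition of human ATN-1 cells, read out with a cell viability assay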
# Description: SANGER: Inhibition of human ATN-1 cell growth in a cell viability assay.
# [39] = system: EW-18; format: functional, cell-based, Homo sapiens; settings: Homo sapiens, EW-18;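 further: growth inhibition of EW-18 cells, read out by a cell viability assay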
# Description: SANGER: Inhibition of human EW-18 cell growth in a cell viability assay.
# [40] = system: D-502MG; format: functional, cell-based, Homo sapiens; settings: Homo sapiens, D-502MG
# Description: SANGER: Inhibition of human D-502MG cell growth in a cell viability assay.
# [41] = system: HH; format: functional, cell-based, Homo sapiens; settings: Homo sapiens, HH
# Description: SANGER: Inhibition of human HH cell growth in a cell viability assay.
# [42] = system: HCC1187; format: functional, cell-based, Homo sapiens; settings: Homo sapiens, HCC1187;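 further: growth inhibition of HCC1187 cells, read out with a cell viability assay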
# Description: SANGER: Inhibition of human HCC1187 cell growth in a cell viability assay.
# [43] = system: KM-H2; format: functional, cell-based, Homo sapiens; settings: Homo sapiens, KM-H2;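 further: growth inhibition of KM-H2 cells, read out by a cell viability assay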
# Description: SANGER: Inhibition of human KM-H2 cell growth in a cell viability assay.
# [44] = system: TE-11; format: functional, cell-based, Homo sapiens; settings: Homo sapiens, TE-11;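 further: growth inhibition of human TE-11 cells, read out by a cell viability assay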
# Description: SANGER: Inhibition of human TE-11 cell growth in a cell viability assay.
# [45] = system: NCI-H226; format: functional, cell-based, Homo sapiens; settings: Homo sapiens, NCI-H226;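 further: cell viability read-out used to gauge growth inhibition of the cells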
# Description: SANGER: Inhibition of human NCI-H226 cell growth in a cell viability assay.
# [46] = system: SNB-75; format: functional, cell-based, Homo sapiens; settings: Homo sapiens, SNB-75;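 further: cell viability assay measuring growth inhibition of human SNB-75 cells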
# Description: SANGER: Inhibition of human SNB75 cell growth in a cell viability assay.
# [47] = system: ES5; format: functional, cell-based, Homo sapiens; settings: Homo sapiens, ES5;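 further: growth inhibition of human ES5 cells, read out by a cell viability assay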
# Description: SANGER: Inhibition of human ES5 cell growth in a cell viability assay.
# [48] = system: ALL-PO; format: functional, cell-based, Homo sapiens; settings: Homo sapiens, ALL-PO;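 further: growth inhibition of ALL-PO cells, read out by a cell viability assay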
# Description: SANGER: Inhibition of human ALL-PO cell growth in a cell viability assay.
# [49] = system: KARPAS-299; format: functional, cell-based, Homo sapiens; settings: Homo sapiens, KARPAS-299
# Description: SANGER: Inhibition of human KARPAS-299 cell growth in a cell viability assay.
structure (smiles),measurement,setting,value
Oc1ccc2ccccc2c1SSc1c(O)ccc2ccccc12,IC50,[1],> 32 µM
same,IC50,[2],> 32 µM
same,IC50,[3],> 32 µM
same,IC50,[4],> 32 µM
same,IC50,[5],> 32 µM
same,IC50,[6],> 32 µM
same,IC50,[7],> 32 µM
same,IC50,[8],> 32 µM
same,IC50,[9],> 32 µM
same,IC50,[10],21.7 µM
same,IC50,[11],> 32 µM
same,IC50,[12],> 32 µM
same,IC50,[13],> 32 µM
same,IC50,[14],> 32 µM
same,IC50,[15],> 32 µM
same,IC50,[16],> 32 µM
same,IC50,[17],23.2 µM
same,IC50,[18],> 32 µM
same,IC50,[19],> 32 µM
same,IC50,[20],> 32 µM
same,IC50,[21],> 32 µM
same,IC50,[22],> 32 µM
same,IC50,[23],> 32 µM
same,IC50,[24],> 32 µM
same,IC50,[25],> 32 µM
same,IC50,[26],3.5 µM
same,IC50,[27],> 32 µM
same,IC50,[28],8.07 µM
same,IC50,[29],> 32 µM
same,IC50,[30],> 32 µM
same,IC50,[31],> 32 µM
same,IC50,[32],> 32 µM
same,IC50,[33],> 32 µM
same,IC50,[34],> 32 µM
same,IC50,[35],> 32 µM
same,IC50,[36],> 32 µM
same,IC50,[37],> 32 µM
same,IC50,[38],> 32 µM
same,IC50,[39],> 32 µM
same,IC50,[40],> 32 µM
same,IC50,[41],10.8 µM
same,IC50,[42],> 32 µM
same,IC50,[43],> 32 µM
same,IC50,[44],> 32 µM
same,IC50,[45],12.6 µM
same,IC50,[46],> 32 µM
same,IC50,[47],12.3 µM
same,IC50,[48],13.9 µM
same,IC50,[49],> 32 µM
Cc1ccc(-c2c(C(=O)CCl)n(CCCO)c3ncnc(N)c23)cc1,IC50,[1],> 4 µM
same,IC50,[2],> 4 µM
same,IC50,[3],> 4 µM
same,IC50,[4],> 4 µM
same,IC50,[5],> 4 µM
same,IC50,[6],2.7 µM
same,IC50,[7],> 4 µM
same,IC50,[8],> 4 µM
same,IC50,[9],> 4 µM
same,IC50,[10],> 4 µM
same,IC50,[11],> 4 µM
same,IC50,[12],> 4 µM
same,IC50,[13],1.82 µM
same,IC50,[14],> 4 µM
same,IC50,[15],> 4 µM
same,IC50,[16],> 4 µM
same,IC50,[17],> 4 µM
same,IC50,[18],> 4 µM
same,IC50,[19],> 4 µM
same,IC50,[20],> 4 µM
same,IC50,[21],> 4 µM
same,IC50,[22],> 4 µM
same,IC50,[23],> 4 µM
same,IC50,[24],> 4 µM
same,IC50,[25],> 4 µM
same,IC50,[26],> 4 µM
same,IC50,[27],> 4 µM
same,IC50,[28],> 4 µM
same,IC50,[29],> 4 µM
same,IC50,[30],> 4 µM
same,IC50,[31],> 4 µM
same,IC50,[32],> 4 µM
same,IC50,[33],> 4 µM
same,IC50,[34],> 4 µM
same,IC50,[35],> 4 µM
same,IC50,[36],> 4 µM
same,IC50,[37],> 4 µM
same,IC50,[38],> 4 µM
same,IC50,[39],> 4 µM
same,IC50,[40],> 4 µM
same,IC50,[41],> 4 µM
same,IC50,[42],> 4 µM
same,IC50,[43],> 4 µM
same,IC50,[44],> 4 µM
same,IC50,[45],> 4 µM
same,IC50,[46],> 4 µM
same,IC50,[47],> 4 µM
same,IC50,[48],> 4 µM
same,IC50,[49],> 4 µM
C=C(c1ccc(C(=O)O)cc1)c1cc2c(cc1C)C(C)(C)CCC2(C)C [BEXAROTENE],IC50,[1],> 8 µM
same,IC50,[2],> 8 µM
same,IC50,[3],> 8 µM
same,IC50,[4],> 8 µM
same,IC50,[5],> 8 µM
same,IC50,[6],> 8 µM
same,IC50,[7],> 8 µM
same,IC50,[8],> 8 µM
same,IC50,[9],> 8 µM
same,IC50,[10],> 8 µM
same,IC50,[11],> 8 µM
same,IC50,[12],> 8 µM
same,IC50,[13],> 8 µM
same,IC50,[14],> 8 µM
same,IC50,[15],> 8 µM
same,IC50,[16],> 8 µM
same,IC50,[17],> 8 µM
same,IC50,[18],> 8 µM
same,IC50,[19],> 8 µM
same,IC50,[20],> 8 µM
same,IC50,[21],> 8 µM
same,IC50,[22],> 8 µM
same,IC50,[23],> 8 µM
same,IC50,[24],> 8 µM
same,IC50,[25],> 8 µM
same,IC50,[26],> 8 µM
same,IC50,[27],> 8 µM
same,IC50,[28],> 8 µM
same,IC50,[29],2.5 µM
same,IC50,[30],> 8 µM
same,IC50,[31],> 8 µM
same,IC50,[32],> 8 µM
same,IC50,[33],> 8 µM
same,IC50,[34],> 8 µM
same,IC50,[35],> 8 µM
same,IC50,[36],> 8 µM
same,IC50,[37],> 8 µM
same,IC50,[38],3.34 µM
same,IC50,[39],> 8 µM
same,IC50,[40],> 8 µM
same,IC50,[41],> 8 µM
same,IC50,[42],> 8 µM
same,IC50,[43],> 8 µM
same,IC50,[44],> 8 µM
same,IC50,[45],> 8 µM
same,IC50,[46],> 8 µM
same,IC50,[47],> 8 µM
same,IC50,[48],5.86 µM
same,IC50,[49],> 8 µM
